39 compounds from patent US20260216294A1, “BETA 2-ADRENERGIC RECEPTOR AGONISTS FOR TREATMENT OR PREVENTION OF MUSCLE WASTING” (ATROGI AB, priority 2023, published 2026) can be followed below.

Assay [1] concerns L6-myotubes. As to the kind of experiment: Measurement of intracellular cAMP levels in differentiated L6-myotubes (Biological Example 3). It counts as cell-based. The note with it: 0.25 h, intracellular cAMP; compound at 10 μM relative to isoproterenol at 10 μM. How it is done:
(§1) Compounds described in publications referenced and incorporated herein were screened in accordance with the procedures outlined in Biological example 2 and Biological example 3.
Differentiated L6-myotubes were serum-starved overnight and stimulated with isoprenaline or the test compound with a final concentration of 1×10^−5 M, for 15 min in stimulation buffer (HBSS supplemented with 1% BSA, 5 mM HEPES and 1 mM IBMX, pH 7.4). The medium was aspirated and 100 μL of 95% EtOH was added to each well of the 24-well plate and cells were kept at −20° C. overnight. The EtOH was allowed to evaporate and 500 μL of lysis buffer (1% BSA, 5 mM HEPES and 0.3% Tween-20, pH 7.4) was added to each well. The plate was kept at −80° C. for 30 min and then at −20° C. until the day of detection when the samples were thawed. Intracellular cAMP levels were detected using an alpha screen cAMP kit (6760635D from Perkin Elmer).
In general terms: Cyclic AMP is a second messenger, typically raised through Gs and lowered through Gi signalling.

In assay [2] the test system is L6-myotubes. As to the kind of experiment: Glucose uptake in differentiated L6-myotubes (Biological Example 2). It counts as cell-based. Conditions: glucose uptake; compound at 10 μM relative to isoproterenol at 10 μM; read-out: Biological example 2 (GU). The protocol: as §1
Differentiated L6-myotubes were serum-starved overnight in medium containing 0.5% fatty-acid free BSA and stimulated with isoprenaline or the test compound, with a final concentration of 1×10^−5 M. After 1 h 40 min the cells were washed with warm glucose free medium or PBS twice and another portion of agonist was added to the glucose free medium. After 20 min the cells were exposed to 50 nM ^3H-2-deoxyglucose for 10 min before washed with ice cold glucose free medium or PBS three times and lysed with 0.2 M NaOH, 400 μL/well, for 1 h at 60° C. The cell lysate was mixed with 4 mL scintillation buffer (Emulsifier Safe, Perkin Elmer) and the radioactivity was detected in a […] (Tri-Carb 4810TR, Perkin Elmer).

Consider `CCC(C)NCC(O)c1ccc(O)cc1` (stereo not drawn) [Compound 5, 2-(sec-butylamino)-1-(p-hydroxyphenyl)-1-ethanol], for which the Emax at 10 µM is under 25% in the assay with L6-myotubes [1] and 50 to 75% with L6-myotubes [2].

With `Oc1ccc(C(O)CNCC2CCCCC2)cc1` (stereo not drawn) [Compound 6, 2-[(cyclohexylmethyl)amino]-1-(p-hydroxyphenyl)-1-ethanol], the Emax at 10 µM in the assay on L6-myotubes [1] was under 25%; in the assay with L6-myotubes [2] it was over 75%.

`OC(CNCC1CCCCC1)c1ccccc1` (stereo not drawn) [Compound 7, 2-[(cyclohexylmethyl)amino]-1-phenyl-1-ethanol]: the values for the Emax at 10 µM in the assay with L6-myotubes [1] and in the assay on L6-myotubes [2] were under 25% and 25 to 50%, respectively.

Take `CCCC(C)NCC(O)c1ccc(O)cc1` (stereo not drawn) [Compound 8, 1-(p-hydroxyphenyl)-2-(1-methylbutylamino)-1-ethanol]: the Emax at 10 µM lay in the range of 25 to 50% with L6-myotubes [1] and 50 to 75% with L6-myotubes [2].

With `CCCCNC[C@H](O)c1ccc(O)cc1` [Compound 9, (R)-2-(butylamino)-1-(p-hydroxyphenyl)-1-ethanol], the Emax at 10 µM in the assay on L6-myotubes [1] was under 25%; with L6-myotubes [2], over 75%.

For `Oc1ccc(C(O)CNC2CCCC2)cc1` (stereo not drawn) [Compound 10, p-[2-(cyclopentylamino)-1-hydroxyethyl]phenol], the Emax at 10 µM with L6-myotubes [1] is under 25%; in the assay with L6-myotubes [2], 50 to 75%.

Consider `Oc1ccc(C(O)CNC23CC4CC(CC(C4)C2)C3)cc1` (stereo not drawn) [Compound 11, p-[2-(1-adamantanylamino)-1-hydroxyethyl]phenol], for which the Emax at 10 µM in the assay with L6-myotubes [1] is under 25%; in the assay on L6-myotubes [2] it was 25 to 50%.

As for `CCCCNC(C)C(O)c1ccc(O)cc1` (stereo not drawn) [Compound 12, 2-(butylamino)-1-(p-hydroxyphenyl)-1-propanol], the Emax at 10 µM in the assay with L6-myotubes [1] is under 25%; with L6-myotubes [2], 50 to 75%.

On to `CCCC(C)NC(C)C(O)c1ccc(O)cc1` (stereo not drawn) [Compound 13, 1-(p-hydroxyphenyl)-2-(1-methylbutylamino)-1-propanol], for which the Emax at 10 µM in the assay with L6-myotubes [1] was under 25%; with L6-myotubes [2] it was 50 to 75%.

For the compound `CCCC(C)NCC(O)c1cccc(O)c1` (stereo not drawn) [Compound 14, 1-(m-hydroxyphenyl)-2-(1-methylbutylamino)-1-ethanol], the values for the Emax at 10 µM in the assay with L6-myotubes [1] and with L6-myotubes [2] were under 25% and over 75%, respectively.

For `CCCCNCC(O)c1cccc(O)c1` (stereo not drawn) [Compound 15, 2-(butylamino)-1-(m-hydroxyphenyl)-1-ethanol], the Emax at 10 µM is under 25% with L6-myotubes [1] and 50 to 75% with L6-myotubes [2].

As for `Oc1ccc(C(O)CNCCC2CCCCC2)cc1` (stereo not drawn) [Compound 16, 2-(2-cyclohexylethylamino)-1-(p-hydroxyphenyl)-1-ethanol], the Emax at 10 µM was under 25% with L6-myotubes [1] and 25 to 50% with L6-myotubes [2].

With `CCCCCCNCC(O)c1ccc(O)cc1` (stereo not drawn) [Compound 17, 2-(hexylamino)-1-(p-hydroxyphenyl)-1-ethanol], the Emax at 10 µM is under 25% in the assay with L6-myotubes [1] and 25 to 50% in the assay with L6-myotubes [2].

On to `CCCCCCCCNCC(O)c1ccc(O)cc1` (stereo not drawn) [Compound 18, 1-(p-hydroxyphenyl)-2-(octylamino)-1-ethanol], for which the results for the Emax at 10 µM in the assay on L6-myotubes [1] and with L6-myotubes [2] were under 25% and 25 to 50%, respectively.

As for `CCCC(C)NCC(O)c1ccc(O)c(Cl)c1` (stereo not drawn) [Compound 19, 1-(3-chloro-4-hydroxyphenyl)-2-(1-methylbutylamino)-1-ethanol], the Emax at 10 µM with L6-myotubes [1] was under 25%; with L6-myotubes [2] it was 25 to 50%.

On to `CCCCNCC(O)c1ccc(O)c(Cl)c1` (stereo not drawn) [Compound 20, 2-(butylamino)-1-(3-chloro-4-hydroxyphenyl)-1-ethanol], for which the figures for the Emax at 10 µM in the assay with L6-myotubes [1] and with L6-myotubes [2] were under 25% and 25 to 50%, respectively.

For `Oc1ccc(C(O)CNCCCC2CCCCC2)cc1` (stereo not drawn) [Compound 21, 2-(3-cyclohexylpropylamino)-1-(p-hydroxyphenyl)-1-ethanol], the figures for the Emax at 10 µM in the assay on L6-myotubes [1] and in the assay on L6-myotubes [2] were under 25% and over 75%, respectively.

`CCCC(C)NCC(O)c1cc(Cl)c(N)c(Cl)c1` (stereo not drawn) [Compound 22, 1-(4-amino-3,5-dichlorophenyl)-2-(1-methylbutylamino)-1-ethanol]: the Emax at 10 µM was 50 to 75% with L6-myotubes [1] and over 75% in the assay with L6-myotubes [2].

As for `CCCCNCC(O)c1cc(Cl)c(O)c(Cl)c1` (stereo not drawn) [Compound 23, 2-(butylamino)-1-(3,5-dichloro-4-hydroxyphenyl)-1-ethanol], the Emax at 10 µM with L6-myotubes [1] and in the assay with L6-myotubes [2] was under 25% each time.

`Oc1ccc(C(O)CNCCC2CC2)cc1` (stereo not drawn) [Compound 24, p-[2-(2-cyclopropylethylamino)-1-hydroxyethyl]phenol]: the Emax at 10 µM in the assay on L6-myotubes [1] was under 25%; with L6-myotubes [2] it was 50 to 75%.

Take `CCCC(C)NCC(O)c1cc(Cl)c(O)c(Cl)c1` (stereo not drawn) [Compound 25, 1-(3,5-dichloro-4-hydroxyphenyl)-2-(1-methylbutylamino)-1-ethanol]: the Emax at 10 µM in the assay with L6-myotubes [1] and in the assay with L6-myotubes [2] was under 25% throughout.

For `CCCCNCC(O)c1cc(O)cc(O)c1` (stereo not drawn) [Compound 26, 5-[2-(butylamino)-1-hydroxyethyl]resorcinol], the Emax at 10 µM was under 25% with L6-myotubes [1] and 50 to 75% in the assay with L6-myotubes [2].

Take `CCC[C@@H](C)NC[C@H](O)c1ccc(O)cc1` [Compound 27, (R)-2-[(R)-1-methylbutylamino]-1-(p-hydroxyphenyl)-1-ethanol]: the Emax at 10 µM in the assay on L6-myotubes [1] was 25 to 50%; with L6-myotubes [2], over 75%.

As to `CCC[C@@H](C)NC[C@H](O)c1cccc(O)c1` [Compound 28, (R)-2-[(R)-1-methylbutylamino]-1-(m-hydroxyphenyl)-1-ethanol], the Emax at 10 µM is 50 to 75% with L6-myotubes [1] and over 75% in the assay on L6-myotubes [2].

Consider `CCCCNCC(O)c1cc(Cl)c(N)c(Cl)c1` (stereo not drawn) [Compound 29, 1-(4-amino-3,5-dichlorophenyl)-2-(butylamino)-1-ethanol], for which the Emax at 10 µM in the assay on L6-myotubes [1] was 25 to 50%; in the assay with L6-myotubes [2], over 75%.

On to `Oc1ccc(C(O)CNCCCC2CC2)cc1` (stereo not drawn) [Compound 30, 2-(3-cyclopropylpropylamino) -1-(p-hydroxyphenyl)-1-ethanol], for which the Emax at 10 µM is under 25% in the assay on L6-myotubes [1] and over 75% with L6-myotubes [2].

Take `CCCCNCC(O)c1cc(Cl)c(N)c(C(F)(F)F)c1` (stereo not drawn) [Compound 32, 1-[4-amino-3-chloro-5-(trifluoromethyl)phenyl] -2-(butylamino)-1-ethanol]: the Emax at 10 µM is 25 to 50% with L6-myotubes [1] and over 75% in the assay on L6-myotubes [2].

As for `CCCC(C)NCC(O)c1cc(Cl)c(N)c(C(F)(F)F)c1` (stereo not drawn) [Compound 33, 1-[4-amino-3-chloro-5-(trifluoromethyl)phenyl] -2-(1-methylbutylamino)-1-ethanol], the Emax at 10 µM in the assay on L6-myotubes [1] was over 75%; in the assay with L6-myotubes [2], 50 to 75%.

`CCCCNCC(O)c1ccc(Cl)c(O)c1` (stereo not drawn) [Compound 34, 2-(butylamino)-1-(4-chloro-3-hydroxyphenyl)-1-ethanol]: the Emax at 10 µM was under 25% with L6-myotubes [1] and over 75% in the assay on L6-myotubes [2].

Turning to `CCCC(C)NCC(O)c1ccc(Cl)c(O)c1` (stereo not drawn) [Compound 35, 1-(4-chloro-3-hydroxyphenyl)-2-(1-methylbutylamino)-1-ethanol], the Emax at 10 µM was under 25% in the assay on L6-myotubes [1] and over 75% with L6-myotubes [2].

For `CCCCNCC(O)c1cc(F)c(N)c(F)c1` (stereo not drawn) [Compound 37, 1-(4-amino-3,5-difluorophenyl)-2-(butylamino)-1-ethanol], the Emax at 10 µM in the assay on L6-myotubes [1] and with L6-myotubes [2] was over 75% in each case.

As for `CCCCNCC(O)c1ccc(F)c(NC(C)=O)c1F` (stereo not drawn) [Compound 42, N-{3-[2-(butylamino)-1-hydroxyethyl]-2,6-difluorophenyl}acetamide], the Emax at 10 µM was under 25% in the assay with L6-myotubes [1] and 25 to 50% in the assay on L6-myotubes [2].

In the case of `CCCCNCC(O)c1ccc(F)c(N)c1F` (stereo not drawn) [Compound 43, 1-(3-amino-2,4-difluorophenyl)-2-(butylamino)-1-ethanol], the Emax at 10 µM is under 25% in the assay with L6-myotubes [1] and over 75% with L6-myotubes [2].

For `CCCCNCC(O)c1ccc(F)c(N)c1` (stereo not drawn) [Compound 44, 1-(3-amino-4-fluorophenyl)-2-(butylamino)-1-ethanol], the Emax at 10 µM with L6-myotubes [1] is under 25%; with L6-myotubes [2], 50 to 75%.

Take `CCC[C@@H]1CCC[C@H]([C@H](O)c2cccc(O)c2)N1` [Compound 45]: the Emax at 10 µM in the assay on L6-myotubes [1] was under 25%; in the assay on L6-myotubes [2] it was over 75%.

Regarding `CCCCNC[C@H](O)c1ccc(F)cc1` [Compound 46, (R)-2-(butylamino)-1-(p-fluorophenyl)-1-ethanol], the Emax at 10 µM was under 25% in the assay with L6-myotubes [1] and 50 to 75% with L6-myotubes [2].

With `CCCCNC[C@H](O)c1cccc(F)c1` [Compound 47, (R)-2-(butylamino)-1-(m-fluorophenyl)-1-ethanol], the results for the Emax at 10 µM with L6-myotubes [1] and in the assay with L6-myotubes [2] were under 25% and 50 to 75%, respectively.

Consider `CCCCNCC(O)c1ccncc1` (stereo not drawn) [Compound 48, 2-(butylamino)-1-(4-pyridyl)-1-ethanol], for which the Emax at 10 µM in the assay on L6-myotubes [1] was under 25%; in the assay with L6-myotubes [2], 25 to 50%.

On to `CCCCNCC(O)c1cccnc1` (stereo not drawn) [Compound 49, 2-(butylamino)-1-(3-pyridyl)-1-ethanol], for which the Emax at 10 µM in the assay on L6-myotubes [1] was under 25%; in the assay with L6-myotubes [2], 50 to 75%.
